Assay results from US20220056019A1, “FARNESOID X RECEPTOR AGONISTS AND USES THEREOF” (Metacrine, Inc., priority 2018, published 2022).

Molecular target: T1, hFXR (Homo sapiens, UniProt Q96RI1)
T1 construct: expressed in transfected cells; host or cells: CV-1 cells
T1 sequence (Q96RI1 1-486): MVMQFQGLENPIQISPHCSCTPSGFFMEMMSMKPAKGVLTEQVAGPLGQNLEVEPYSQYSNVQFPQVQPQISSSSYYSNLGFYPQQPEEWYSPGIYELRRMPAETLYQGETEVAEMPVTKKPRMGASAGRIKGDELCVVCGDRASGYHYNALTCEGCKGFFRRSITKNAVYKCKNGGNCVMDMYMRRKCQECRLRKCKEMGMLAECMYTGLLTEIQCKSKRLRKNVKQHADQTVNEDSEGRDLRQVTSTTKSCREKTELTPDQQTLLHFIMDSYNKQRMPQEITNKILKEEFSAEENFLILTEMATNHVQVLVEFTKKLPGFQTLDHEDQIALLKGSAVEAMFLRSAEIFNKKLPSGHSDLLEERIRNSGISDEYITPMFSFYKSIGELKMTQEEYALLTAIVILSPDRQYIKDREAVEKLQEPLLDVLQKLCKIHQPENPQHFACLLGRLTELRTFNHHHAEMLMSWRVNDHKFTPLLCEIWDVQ
T1 sequence (P19793 1-462 partner): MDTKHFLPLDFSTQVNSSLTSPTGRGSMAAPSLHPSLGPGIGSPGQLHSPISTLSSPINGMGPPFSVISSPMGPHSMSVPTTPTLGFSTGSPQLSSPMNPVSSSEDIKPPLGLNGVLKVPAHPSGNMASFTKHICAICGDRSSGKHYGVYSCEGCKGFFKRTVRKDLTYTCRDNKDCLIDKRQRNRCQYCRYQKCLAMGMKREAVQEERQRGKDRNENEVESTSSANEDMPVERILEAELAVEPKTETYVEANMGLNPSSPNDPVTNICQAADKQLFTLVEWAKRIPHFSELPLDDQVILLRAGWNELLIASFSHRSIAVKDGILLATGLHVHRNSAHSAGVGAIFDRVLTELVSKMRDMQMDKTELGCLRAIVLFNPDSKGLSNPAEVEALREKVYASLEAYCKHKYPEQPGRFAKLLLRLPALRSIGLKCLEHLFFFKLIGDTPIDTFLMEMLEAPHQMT
Experiment: In Vitro FXR Assay (TK): TK-ECRE-luc reporter in transfected CV-1 cells
Assay type: cell-based
Conditions: 18 hrs incubation, luminescence
How it was run: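 Luciferase read-out from lysed CV-1 cells carrying transfected hFXR, hRXR, TK-ECRE-luc and pCMX-YFP. Test compounds, DMSO serial dilutions, were incubated with the cells for 18 h before lysis. Cells grew in charcoal-stripped serum medium.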

COc1ccc([C@H]2CC[C@H](CN(c3cc(-c4cnn(C(C)C)c4)ccn3)C(=O)[C@H]3CC[C@H](OC(=O)NC[C@@H](F)CF)CC3)CC2)cc1C [Compound 2.32, trans-4-((4-(1-Isopropyl-1H-pyrazol-4-yl)pyridin-2-yl)(((trans)-4-(4-methoxy-3-methylphenyl)cyclohexyl)methyl)carbamoyl) cyclohexyl((R)-2,3-difluoropropyl)carbamate]
EC50: ≤ 50 nM

COc1ccc(C23CCC(CN(c4cc(-c5cnn(C(C)C)c5)ccn4)C(=O)[C@H]4CC[C@H](OC(=O)N5CC(C(C)C)C5)CC4)(CC2)CC3)cc1C [Compound 23.12, 4-((4-(1-Isopropyl-1H-pyrazol-4-yl)pyridin-2-yl)((4-(4-methoxy-3-methylphenyl)bicyclo[2.2.2]oc-tan-1-yl)methyl)carbamoyl)cyclo-hexyl trans-3-isopropyl-azetidine-1-carboxylate]
EC50: ≤ 50 nM

COc1ccc([C@H]2CC[C@H](CN(c3cccc(-c4coc(C5CC5)n4)c3)C(=O)[C@H]3CC[C@H](C(=O)OC)CC3)CC2)nc1C [Compound 18, trans-Methyl 4-((3-(2-cyclopropyloxazol-4-yl)phenyl)((trans-4-(5-methoxy-6-methylpyridin-2-yl)cyclohexyl)methyl)carbamoyl)cyclo-hexanecarboxylate]
EC50: ≤ 50 nM

CCn1cc(-c2ccnc(N(C[C@H]3CC[C@H](c4ccc(OC)c(C)c4)CC3)C(=O)[C@H]3CC[C@H](OC(=O)N4CC(O)C4)CC3)c2)cn1 [Compound 2.22, trans-4-((4-(1-Ethyl-1H-pyrazol-4-yl)pyridin-2-yl) ((trans-4-(4-methoxy-3-methylphenyl)cyclohexyl)methyl)carbamoyl) cyclohexyl3-hydroxyazetidine-1-carboxylate]
EC50: ≤ 50 nM

COCC(=O)N[C@H]1CC[C@H](C(=O)N(CC23CCC(c4ccc(OC)c(C)c4)(CC2)CC3)c2cc(-c3cnc(C4CC4)s3)ccn2)CC1 [Compound 9.07, (trans)-N-(4-(2-Cyclopropylthiazol-5-yl)pyridin-2-yl)-N-((4-(4-methoxy-3-methylphenyl)bicyclo[2.2.2]octan-1-yl)methyl)-4-(2-methoxyacetamido)cyclohexanecar-boxamide]
EC50: ≤ 50 nM

COc1ccc(C23CCC(CN(c4cc(-c5coc(C(C)C)n5)ccn4)C(=O)[C@H]4CC[C@H](OC(=O)NC5COC5)CC4)(CC2)CC3)cc1C [Compound 23.04, 4-((4-(2-Isopropyloxazol-4-yl)pyridin-2-yl)((4-(4-methoxy-3-methylphenyl)bicyclo[2.2.2]octan-1-yl)methyl)carbamoyl)(trans-cyclohexyl)oxetan-3-ylcarbamate]
EC50: ≤ 50 nM

COc1ccc([C@H]2CC[C@H](CN(c3cc(-c4cnn(C(F)(F)F)c4)ccn3)C(=O)[C@H]3CC[C@H](OC(=O)NCC(C)(C)O)CC3)CC2)cc1C [Compound 2.58, trans-4-((((trans)-4-(4-Methoxy-3-methylphenyl)cyclohexyl)methyl) (4-(1-(trifluoromethyl)-1H-pyrazol-4-yl)pyridin-2-yl)carbamoyl)cyclohexyl (2-hydroxy-2-methylpropyl)carbamate]
EC50: 50 to 1000 nM

CC(C)c1ccc(C23CCC(CN(c4nccc(-c5cnn(C(C)C)c5)n4)C(=O)[C@H]4CC[C@H](OC(=O)N5CC(O)C5)CC4)(CC2)CC3)cc1 [Compound 4.62, 4-((4-(1-Isopropyl-1H-pyrazol-4-yl)pyrimidin-2-yl)((4-(4-isopropylphenyl)bicyclo[2.2.2]octan-1-yl)methyl)carbamoyl)(trans-cyclohexyl) 3-hydroxyazetidine-1-carboxylate]
EC50: ≤ 50 nM

COc1ccc([C@H]2CC[C@H](CN(c3cc(-c4coc(C5CC5)n4)ccn3)C(=O)[C@H]3CC[C@H](OC(=O)NC(C)C)CC3)CC2)cc1C [Compound 2.46, trans-4-((4-(2-Cyclopropyloxazol-4-yl)pyridin-2-yl)((trans-4-(4-methoxy-3-methylphenyl)cyclohexyl)methyl)carbamoyl)cyclohexyl isopropylcarbamate]
EC50: ≤ 50 nM

COc1ccc(C23CCC(CN(c4cc(-c5coc(C(C)C)n5)ccn4)C(=O)[C@H]4CC[C@H](OC(=O)N5CC(CO)C5)CC4)(CC2)CC3)cc1C [Compound 23.01, 4-((4-(2-Isopropyloxazol-4-yl)pyridin-2-yl)((4-(4-methoxy-3-methylphenyl)bicyclo[2.2.2]octan-1-yl)methyl)carbamoyl)(trans-cyclohexyl) 3-(hydroxymethyl)azetidine-1-carboxylate]
EC50: ≤ 50 nM

COc1ccc(C23CCC(CN(c4ccc(F)c(-c5cnn(C(C)C)c5)c4)C(=O)[C@H]4CC[C@H](OC(=O)N5CC(CS(C)(=O)=O)C5)CC4)(CC2)CC3)cc1C [Compound 25.10, 4-((4-Fluoro-3-(1-isopropyl-1H-pyrazol-4-yl)phenyl)((4-(4-methoxy-3-methylphenyl)bicyclo[2.2.2]octan-1-yl)methyl)carbamoyl)cyclohexyl trans-3-((methylsulfonyl)methyl)azetidine-1-carboxylate]
EC50: ≤ 50 nM

COc1ccc(C23CCC(CN(c4cc(-c5coc(C(C)C)n5)ccn4)C(=O)[C@H]4CC[C@H](OC(=O)NCCCO)CC4)(CC2)CC3)cc1C [Compound 23.02, 4-((4-(2-Isopropyloxazol-4-yl)pyridin-2-yl)((4-(4-methoxy-3-methylphenyl)bicyclo[2.2.2]octan-1-yl)methyl)carbamoyl)(trans-cyclohexyl)(3-hydroxypropyl)carbamate]
EC50: ≤ 50 nM

COc1ccc([C@H]2CC[C@H](CN(c3cc(-c4cnn(C(C)C)c4)ccn3)C(=O)[C@H]3CC[C@H](OC(=O)NCC(C)(C)O)CC3)CC2)cc1C [Compound 2.04, trans-4-((4-(1-Isopropyl-1H-pyrazol-4-yl)pyridin-2-yl) ((trans-4-(4-methoxy-3-methylphenyl)cyclohexyl)methyl)carbamoyl) cyclohexyl(2-hydroxy-2-methylpropyl)carbamate]
EC50: ≤ 50 nM

COc1ccc(C23CCC(CN(c4cc(-c5cnn(C(C)C)c5)ncn4)C(=O)[C@H]4CC[C@H](OC(=O)NCCCO)CC4)(CC2)CC3)cc1C [Compound 23.19, 4-((6-(1-Isopropyl-1H-pyrazol-4-yl)pyrimidin-4-yl)((4-(4-methoxy-3-methylphenyl)bi-cyclo[2.2.2]octan-1-yl)methyl)carbamoyl)(trans-cyclohexyl) (3-hydroxypropyl)carbamate]
EC50: ≤ 50 nM

COc1ccc(C23CCC(CN(c4cc(-c5cnc(C(C)C)s5)ccn4)C(=O)[C@H]4CC[C@H](NC(=O)CO)CC4)(CC2)CC3)cc1C [Compound 9, (trans)-4-(2-Hydroxyacetamido)-N-(4-(2-isopropylthiazol-5-yl)pyridin-2-yl)-N-((4-(4-methoxy-3-methylphenyl)bicyclo[2.2.2]octan-1-yl)methyl)cyclohexanecarboxamide]
EC50: ≤ 50 nM

COc1ccc([C@H]2CC[C@H](CN(c3cccc(-n4cnc(C5CC5)n4)c3)C(=O)[C@H]3CC[C@H](OC(=O)N4CC(O)C4)CC3)CC2)cc1C [Compound 5, trans-4-((3-(3-Cyclopropyl-1H-1,2,4-triazol-1-yl)phenyl)((trans-4-(4-methoxy-3-methylphenyl)cyclohexyl)methyl)carbamoyl)cyclohexyl 3-hydroxyazetidine-1-carboxylate]
EC50: ≤ 50 nM

CNC(=O)O[C@H]1CC[C@H](C(=O)N(CC23CCC(c4ccc(OC)c(C)c4)(CC2)CC3)c2cc(-c3cnn(C(C)C)c3)ccn2)CC1 [Compound 4.03, 4-((4-(1-Isopropyl-1H-pyrazol-4-yl)pyridin-2-yl)((4-(4-methoxy-3-methylphenyl)bicyclo [2.2.2]octan-1-yl)methyl)carbamoyl)cyclohexyl trans-methylcarbamate]
EC50: ≤ 50 nM

CCCC1CN(C(=O)O[C@H]2CC[C@H](C(=O)N(CC34CCC(c5ccc(OC)c(C)c5)(CC3)CC4)c3cc(-c4cnn(C(C)C)c4)ccn3)CC2)C1 [Compound 4.55, 4-((4-(1-Isopropyl-1H-pyrazol-4-yl)pyridin-2-yl) ((4-(4-methoxy-3-methylphenyl)bicyclo [2.2.2]octan-1-yl)methyl)carbamoyl)cyclohexyl trans-3-propylazetidine-1-carboxylate]
EC50: ≤ 50 nM

COc1ccc(C23CCC(CN(c4nccc(-c5cnn(C6(C)CCC6)c5)n4)C(=O)[C@H]4CC[C@H](OC(=O)N5CC(O)C5)CC4)(CC2)CC3)cc1C [Compound 25.25, 4-(((4-(4-Methoxy-3-methylphenyl)bicyclo[2.2.2]octan-1-yl)methyl)(4-(1-(1-methylcyclobutyl)-1H-pyrazol-4-yl)pyrimidin-2-yl)carbamoyl)cyclohexyl trans-3-hydroxyazetidine-1-carboxylate]
EC50: ≤ 50 nM
